How the values were obtained:
C57 and BTBR mice [1] = assay: Social preference procedure: social novelty preference test; assay type: in vivo, mouse
Method: (§1) All drugs were dissolved in physiological 0.9% saline and administered at a constant volume of 1 ml/100 g body weight. Because all drugs utilized in these studies were synthesized as hydrochloride (HCl) salts, they were weighed as salts prior to the preparation of all solutions. All drugs at all concentrations are readily dissolved in an aqueous solution at normal pH. Injections of all drugs were administered intraperitoneally (IP) to mimic pharmacokinetic parameters typical of oral administration, without the behaviour-impairing effects of gavage stress.
(§2) This assay was conducted in adult male C57 and BTBR mice (n=6 per group) in a dedicated conditioning room where ambient light, sound, and human contact were tightly controlled.
Social preference chambers consisted of two polycarbonate boxes (13.5 cm wide×22.5 cm tall×31.0 cm deep), floored with rough-textured black ABS plastic, and connected to one another by a 1.25″ PVC T-junction. An infrared photobeam emitter/detector array was mounted at each intersection of the T-junction and each preference compartment, and as a mouse traversed the apparatus, it would break the photobeam upon entry to or exit from each preference compartment. Beam breaks started or stopped a counter on an interfaced computer, allowing automated collection of time spent in each compartment. […]

C57 and BTBR mice [2] = assay: Conditioned place preference; assay type: in vivo, mouse
Method: The same 2-compartment chambers as described above in the social preference studies for conditioned place preference. For these studies, compartments are differentiated by floor texture (rough black plastic vs steel punch plate) and wall pattern (vertical vs. horizontal stripes.) An initial preference/habituation test was first run where mice were able to freely traverse the apparatus for 30 minutes. The following day, mice were assigned to receive saline in one compartment and drug in the other. Saline pairings occurred in the morning, drug pairings occurred in the afternoon, and were separated by at least 4 hours, during which time mice returned to their home cages. Three such pairings were performed, where mice were injected, returned to the home cage for a 15 min pretreatment period, then confined to the injection-appropriate compartment for 30 minutes. Half the subjects (within strain) received drug pairings on the plastic floor+vertical stripes side, and the other half received drug pairings on the punch plate floor+horizontal stripes side. […] The post-conditioning preference test was identical to the initial preference/habituation session, where mice were freely able to traverse the apparatus for 30 minutes. Time spent in each compartment was recorded, and expressed as a preference score for the drug paired side (calculated as time spent in that compartment during the post-test—time spent there during the pre-test.) All preference and conditioning sessions were conducted under the same low light conditions as in the social preference tests.

C57 and BTBR mice [3] = assay: Social preference procedure: novelty preference test; assay type: in vivo, mouse; conditions: 1 mg/kg IP
Method: as §1, §2
Social preference chambers consisted of two polycarbonate boxes (13.5 cm wide×22.5 cm tall×31.0 cm deep), floored with rough-textured black ABS plastic, and connected to one another by a 1.25″ PVC T-junction. An infrared photobeam emitter/detector array was mounted at each intersection of the T-junction and each preference compartment, and as a mouse traversed the apparatus, it would break the photobeam upon entry to or exit from each preference compartment. Beam breaks started or stopped a counter on an interfaced computer, allowing automated collection of time spent in each compartment. At the end of each test, data were reported as time (in seconds) spent in each compartment, the number of entries into each compartment, and the average time spent in each compartment following an entry. Social preference tests were conducted in an iterative manner, with each test subject completing four distinct phases as described below. Between testing sessions, chambers were sanitized by wiping the insides with a disinfectant product provided by the UAMS Department of Laboratory Animal Medicine. At the end of the week (upon completion of all phases of the procedure), each apparatus was disassembled and all parts were sanitized. No food or water were available during social preference sessions, but were available in the home cage immediately afterwards. […]

C57 and BTBR mice [4] = assay: Compartment entries during social novelty test (proxy for locomotor stimulant effects); assay type: in vivo, mouse; conditions: 1 mg/kg, C57 mice, relative to saline
From the text: (§3) Social preference chambers consisted of two polycarbonate boxes (13.5 cm wide×22.5 cm tall×31.0 cm deep), floored with rough-textured black ABS plastic, and connected to one another by a 1.25″ PVC T-junction. An infrared photobeam emitter/detector array was mounted at each intersection of the T-junction and each preference compartment, and as a mouse traversed the apparatus, it would break the photobeam upon entry to or exit from each preference compartment. Beam breaks started or stopped a counter on an interfaced computer, allowing automated collection of time spent in each compartment. At the end of each test, data were reported as time (in seconds) spent in each compartment, the number of entries into each compartment, and the average time spent in each compartment following an entry. Social preference tests were conducted in an iterative manner, with each test subject completing four distinct phases as described below. Between testing sessions, chambers were sanitized by wiping the insides with a disinfectant product provided by the UAMS Department of Laboratory Animal Medicine. At the end of the week (upon completion of all phases of the procedure), each apparatus was disassembled and all parts were sanitized. No food or water were available during social preference sessions, but were available in the home cage immediately afterwards.
Quantifying total entries into the preference compartments provides a proxy measurement for locomotor stimulant effects of the various doses of the various test drugs. This establishes a limit to the drug doses that can be tested in the social preference procedure, as induction of locomotor stimulant effects confounds preference assessments (because mice stop attending to the social stimuli in each compartment and instead spend their time engaged in locomotor behavior.) Motor activity varies across the distinct phases of social preference testing, in part because the habituation session is twice as long (30 minutes) as the novelty, sociability, and social novelty tests (15 minutes each), but also because mice emit high levels of exploratory behavior in novel environments. Thus, as familiarity with the test apparatus increases over successive exposures to the chambers, the number of entries decreases.
(Note that entries were collected for every test, but drug effects on entries during earlier phases may be less reliable due to the confounding influence of changing familiarity with the apparatus across phases.)

C57 and BTBR mice [5] = assay: Social preference procedure: sociability test; assay type: in vivo, mouse; conditions: 1 mg/kg IP
Method: as §1, §2, §3
A single sociability session occurred the day after the novelty preference test, where one compartment contained a wire mesh cup with a dummy mouse inside while the other compartment contained a male NIH Swiss stranger mouse inside the previously empty cup (see FIG. 4). […] The position of the dummy mouse (left or right compartment) remained the same for each subject as during the novelty test the day before, thereby counterbalancing the position of the stranger mouse across subjects. NIH Swiss stranger mice were similar in mass and appearance to the dummy PVC mice, and were housed separately from the experimental subjects (C57 and BTBR mice) in the colony facility. The first time the experimental subjects ever encountered the stranger mice was when they entered the compartment where they were contained. During this session, mice were weighed, administered the same injection as the day before, and returned to their home cage for a 30 min pretreatment period. Mice were then introduced into the T-junction and allowed to explore both preference compartments for 15 minutes. Sociability tests always occurred on Wednesdays or Thursdays to prevent any weekend testing.

DAT = DAT (Homo sapiens, UniProt Q01959); assay: QSAR model predicted IC50, DAT; conditions: ratio = 1/DAT IC50:1/SERT IC50, from predicted IC50
Sequence of DAT (Q01959 whole entry, species assumed): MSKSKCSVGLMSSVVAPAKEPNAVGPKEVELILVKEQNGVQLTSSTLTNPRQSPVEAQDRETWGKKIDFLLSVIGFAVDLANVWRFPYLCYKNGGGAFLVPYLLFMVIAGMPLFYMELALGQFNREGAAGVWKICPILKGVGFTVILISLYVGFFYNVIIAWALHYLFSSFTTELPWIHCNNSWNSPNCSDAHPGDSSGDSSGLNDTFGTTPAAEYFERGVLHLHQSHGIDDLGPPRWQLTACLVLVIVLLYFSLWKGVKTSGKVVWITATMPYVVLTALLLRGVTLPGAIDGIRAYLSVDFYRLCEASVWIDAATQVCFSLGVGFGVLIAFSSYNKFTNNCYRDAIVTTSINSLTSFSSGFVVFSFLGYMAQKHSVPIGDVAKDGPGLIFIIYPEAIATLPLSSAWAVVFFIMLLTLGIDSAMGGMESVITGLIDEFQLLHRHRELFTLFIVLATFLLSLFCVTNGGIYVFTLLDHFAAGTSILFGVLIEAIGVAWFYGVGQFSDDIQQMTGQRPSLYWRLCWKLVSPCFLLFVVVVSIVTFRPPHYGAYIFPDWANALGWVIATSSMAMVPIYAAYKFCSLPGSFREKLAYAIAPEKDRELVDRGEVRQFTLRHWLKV
Method: In silico studies (QSAR and docking) are useful tools to understand drug mechanisms, and they are relatively cheaper and faster than experiments. A QSAR model was created for each monoamine transporter. Additionally, the docking properties of phenethylamines were investigated.
QSAR: DAT, SERT and NET IC50 values were collected from the literature for 73 phenethylamines. Three different software's were used for descriptor calculations, and almost 2000 descriptors were calculated. Highly correlated descriptors were eliminated before multi-linear regression (MLR) analysis. All descriptors were merged with experimental inhibition values in QSARiNS software. The multi-Criteria Decision-Making tool of QSARiNS was used to pick the best model.
The predicted IC^50 (mM) values of the test molecules generated based on the QSAR developed as described above are presented in Table 4.

[6] = 3 mg/kg, x3 pairings, C57 and BTBR mice

SMILES: c1cc2c(cc1CC1CCCN1)OCO2 (racemic) [(R/S)-I, (R/S)-2-[(2H-1,3-benzodioxol-5-yl)methyl]pyrrolidine]
- pro-social response (time with stranger mouse, social novelty preference) (C57 and BTBR mice [1]; 1 mg/kg): strongest pro-social response
- pro-social response (time with stranger mouse, social novelty preference) (C57 and BTBR mice [1]; 1.8 mg/kg): the response drops

SMILES: CNC(C)Cc1ccc2c(c1)OCO2 (racemic) [racemic MDMA, 1-(1,3-benzodioxol-5-yl)-N-methylpropan-2-amine, reference compound]
- place conditioning (place preference) (C57 and BTBR mice [2]; [6]): significant place preferences
- effect on novelty preference (time spent with dummy mouse) (C57 and BTBR mice [3]): no systematic effects
- total entries during social novelty test (C57 and BTBR mice [4]): no effect
- sociability (time spent with stranger mouse) (C57 and BTBR mice [5]; BTBR mice): minor increase in the sociability response
- sociability (time spent with stranger mouse) (C57 and BTBR mice [5]; C57 mice): no impact

SMILES: CN[C@H](C)Cc1ccc2c(c1)OCO2 [R-MDMA, reference compound]
- place conditioning (place preference) (C57 and BTBR mice [2]; 10 mg/kg, either strain): no significant effects
- DAT/SERT (calculated) (DAT): 0.010

SMILES: CN[C@@H](C)Cc1ccc2c(c1)OCO2 [S-MDMA, reference compound]
- place conditioning (place preference) (C57 and BTBR mice [2]; [6]): significant place preferences
- DAT/SERT (calculated) (DAT): 0.383

SMILES: CN[C@@H](C)Cc1ccccc1 [S-methamphetamine, reference compound]
- place conditioning (place preference) (C57 and BTBR mice [2]; 1.0 and 3.0 mg/kg, x3 pairings, C57 and BTBR mice): significant place preferences in C57 mice only
